Here are results for 26 compounds from ChEMBL document CHEMBL5247582 (Eur J Med Chem, 2022).

Each structure is given as a SMILES string. pIC50: −log10 of the molar value. Calls of active or inactive are those of the source. The calls are words filed in the database; no cut-off is given here.

Data set [1] has as its target T1, Solute carrier family 22 member 12 (Homo sapiens, UniProt Q96S37).
T1 sequence (Q96S37 whole entry): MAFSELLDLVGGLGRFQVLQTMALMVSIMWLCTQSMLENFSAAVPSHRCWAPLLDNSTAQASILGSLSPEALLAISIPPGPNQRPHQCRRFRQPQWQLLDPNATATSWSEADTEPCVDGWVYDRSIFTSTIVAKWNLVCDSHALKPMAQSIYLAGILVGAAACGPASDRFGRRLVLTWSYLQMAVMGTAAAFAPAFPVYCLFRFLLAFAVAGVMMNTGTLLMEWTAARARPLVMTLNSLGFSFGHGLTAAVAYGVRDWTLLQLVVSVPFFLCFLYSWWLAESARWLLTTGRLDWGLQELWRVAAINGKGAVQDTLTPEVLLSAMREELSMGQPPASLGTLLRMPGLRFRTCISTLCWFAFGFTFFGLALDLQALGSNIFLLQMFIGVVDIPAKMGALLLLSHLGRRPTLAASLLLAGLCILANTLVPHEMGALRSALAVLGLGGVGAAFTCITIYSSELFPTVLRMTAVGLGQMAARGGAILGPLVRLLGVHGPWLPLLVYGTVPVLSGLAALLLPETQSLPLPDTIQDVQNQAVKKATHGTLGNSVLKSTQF
Kind of data set: Inhibition of human URAT1 mediated 14C-uric acid uptake expressed in HEK293 cells using 14C-uric acid as substrate incubated for 30 mins by liquid scintillation counting analysis. It is filed as cell-based.

Data set [2] relates to Mus musculus. Description: Anti-hyperuricemic activity against hypoxanthine/potassium oxonate-induced Kunming mouse model assessed as reduction in serum uric acid level at 2 mg/kg, sc measured after 4 hrs (reference value: 1010.00 +/- 51.16 uM). It is filed as functional.
Data set [3] has as its system Mus musculus. Description: Anti-hyperuricemic activity against hypoxanthine/potassium oxonate-induced Kunming mouse model assessed as decrease in serum uric acid ratio at 2 mg/kg, sc measured after 4 hrs. It is filed as functional. The arrangement: scale not given: the % may be the effect or the level left.
Data set [4] concerns the target T2, Solute carrier family 2, facilitated glucose transporter member 9 (Homo sapiens, UniProt Q9NRM0).
T2 sequence (Q9NRM0 whole entry): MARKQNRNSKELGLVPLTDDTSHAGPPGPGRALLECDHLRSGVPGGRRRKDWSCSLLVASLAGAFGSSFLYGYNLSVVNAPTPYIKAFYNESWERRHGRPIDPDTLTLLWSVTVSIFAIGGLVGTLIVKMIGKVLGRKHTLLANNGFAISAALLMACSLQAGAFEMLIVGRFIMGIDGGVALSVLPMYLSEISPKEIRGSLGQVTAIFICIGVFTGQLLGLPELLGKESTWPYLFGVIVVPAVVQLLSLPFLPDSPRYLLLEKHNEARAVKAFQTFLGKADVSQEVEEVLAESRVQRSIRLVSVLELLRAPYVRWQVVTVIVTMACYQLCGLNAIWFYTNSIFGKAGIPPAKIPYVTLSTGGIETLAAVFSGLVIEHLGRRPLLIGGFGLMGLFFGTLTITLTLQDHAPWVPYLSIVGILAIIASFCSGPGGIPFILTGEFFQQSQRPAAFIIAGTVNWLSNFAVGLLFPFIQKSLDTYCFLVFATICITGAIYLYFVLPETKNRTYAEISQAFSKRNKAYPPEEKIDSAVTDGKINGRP
Kind of data set: Inhibition of GLUT9 (unknown origin) transfected in HEK293 cells assessed as inhibition of uric acid-induced current by whole cell patch clamp analysis. Type of data set: cell-based.

Data set [5] is described as follows: Acute toxicity in Kunming male mouse assessed as survival rate at 1000 mg/kg, IG. It is filed as organism-based. The note with it: in vivo, po, read-out: Activity.
Data set [6] is described as follows: Acute toxicity in Kunming female mouse assessed as survival rate at 1000 mg/kg, IG. The note with it: in vivo, po, read-out: Activity. It is filed as organism-based.
Data set [7] is described as follows: Acute toxicity in Kunming female mouse assessed as lethargy at 1000 mg/kg, IG. It is filed as organism-based. The note with it: in vivo, po.
Data set [8] in a line: Acute toxicity in Kunming female mouse assessed as clonic convulsion at 1000 mg/kg, IG. Type of data set: organism-based. The note with it: in vivo, po.
Data set [9] is described as follows: Acute toxicity in Kunming female mouse assessed as anorexia at 1000 mg/kg, IG. It is filed as organism-based. The note with it: in vivo, po.
Data set [10] is described as follows: Acute toxicity in Kunming female mouse assessed as ruffled fur at 1000 mg/kg, IG. Type of data set: organism-based. The note with it: in vivo, po.
Data set [11] can be described thus: Acute toxicity in Kunming female mouse assessed as effect on body weight changes at 1000 mg/kg, IG measured for 7 days. It is filed as organism-based. The note with it: in vivo, po, 168 h, time 7 day.
Data set [12] concerns the target T3, Solute carrier family 2, facilitated glucose transporter member 9 (Homo sapiens) (UniProt Q9NRM0).
T3 sequence (whole entry): T2 sequence (Q9NRM0 whole entry)
Kind of data set: Inhibition of GLUT9 (unknown origin) transfected in HEK293 cells assessed as inhibition of uric acid-induced current at 100 uM by whole cell patch clamp analysis. Type of data set: cell-based.

As for `O=C(CSc1nc2sccc2c(=O)n1-c1ccc(C2CC2)c2ccccc12)NS(=O)(=O)c1ccc(O)cc1`, the pIC50 in data set [1] was 4.69.
On the same count and under the same terms, under `CC(C)(C)S(=O)(=O)NC(=O)CSc1nc2sccc2c(=O)n1-c1ccc(C2CC2)c2ccccc12` stands 4.95; under `CC(C)(C)c1ccc(S(=O)(=O)NC(=O)CSc2nc3sccc3c(=O)n2-c2ccc(C3CC3)c3ccccc23)cc1`, 4.87.
With `CC(Sc1ccncc1C(=O)N1CCOc2ccccc21)C(=O)O` (configuration not stated), the Activity was found to be 580 µM with Mus musculus [2] and 40.93% with Mus musculus [3].
Take `CC(Sc1ccncc1C(=O)N1CCc2ccccc2C1)C(=O)O` (configuration not stated): the Activity turned out to be 479.67 µM with Mus musculus [2] and 52.9% in the data set with Mus musculus [3].
In [1], `O=C(CSc1nc2sccc2c(=O)n1-c1ccc(C2CC2)c2ccccc12)NS(=O)(=O)c1ccc(Cl)cc1` showed a pIC50 of 4.92.
As for `O=C(c1cnccc1SC1(C(=O)O)CCC1)N1CCc2ccccc2C1`, the Activity in the data set with Mus musculus [2] turned out to be 621.33 µM; in the data set on Mus musculus [3], 36%.
The compound `O=C(CSc1nc2sccc2c(=O)n1-c1ccc(C2CC2)c2ccccc12)NS(=O)(=O)c1ccc(Cl)s1` gave a pIC50 in data set [1] of 5.01.
Still for that read-out and setting: the figure for `O=C(CSc1nc2sccc2c(=O)n1-c1ccc(C2CC2)c2ccccc12)NS(=O)(=O)c1ccc(F)cc1` is 4.94.
In the case of `CCS(=O)(=O)NC(=O)CSc1nc2sccc2c(=O)n1-c1ccc(C2CC2)c2ccccc12`, in data set [1], the pIC50 was 5.10. For the same compound, the Activity is 675.67 µM with Mus musculus [2] and 36.39% with Mus musculus [3].
As for `O=C(O)CSc1ccncc1C(=O)N1CCc2ccccc2C1`, the Activity was determined as 682.25 µM in the data set on Mus musculus [2] and 28.73% in the data set on Mus musculus [3].
The compound `O=C(O)CSc1nc2sccc2c(=O)n1-c1ccc(C2CC2)c2ccccc12` had a pIC50 in data set [1] (hek293) of 5.49.
In the case of `O=C(O)CSc1ccncc1C(=O)N1CCOc2ccccc21`, the Activity in the data set with Mus musculus [2] turned out to be 802.33 µM; with Mus musculus [3] it was 14.4%.
Compound `O=C(CSc1nc2sccc2c(=O)n1-c1ccc(C2CC2)c2ccccc12)NS(=O)(=O)c1cc(F)cc(F)c1` had a pIC50 in data set [1] of 5.11. The Activity in the data set with Mus musculus [2] is 512.33 µM; with Mus musculus [3] it was 54.17%.
Regarding `O=C(O)CCSc1ccncc1C(=O)N1CCOc2ccccc21`, the Activity in the data set with Mus musculus [2] was determined as 719.33 µM; with Mus musculus [3], 24.3%.
In data set [1], `O=C(CSc1nc2sccc2c(=O)n1-c1ccc(C2CC2)c2ccccc12)NS(=O)(=O)c1ccc([N+](=O)[O-])cc1` showed a pIC50 of 5.01.
On to `O=C(CSc1nc2sccc2c(=O)n1-c1ccc(C2CC2)c2ccccc12)NS(=O)(=O)c1cccc([N+](=O)[O-])c1`, for which the pIC50 in data set [1] was 4.94.
The same measure, in the same setting: under `O=C(CSc1nc2sccc2c(=O)n1-c1ccc(C2CC2)c2ccccc12)NS(=O)(=O)c1ccc(C(F)(F)F)cc1` stands 4.79.
For the compound `O=C(CSc1nc2sccc2c(=O)n1-c1ccc(C2CC2)c2ccccc12)NS(=O)(=O)c1ccc(Br)cc1`, the pIC50 is 5.12 in data set [1] and 4.25 in [4]. Also, the Activity in the data set with Mus musculus [2] is 336.67 µM; with Mus musculus [3], 73.29%; in [7], “Non-Toxic”; in [8] it was “Non-Toxic”; in data set [9], “Non-Toxic”; in data set [10] it was “Non-Toxic”. Also, the Activity entry in [11] is recorded as “Non-Toxic”. The survival in data set [5] and in [6] was 100% each time.
`CC(C)S(=O)(=O)NC(=O)CSc1nc2sccc2c(=O)n1-c1ccc(C2CC2)c2ccccc12` showed a negative-log IC50 (pIC50) in data set [1] of 5.03.
In turn, `CS(=O)(=O)NC(=O)CSc1nc2sccc2c(=O)n1-c1ccc(C2CC2)c2ccccc12` had a pIC50 in data set [1] of 5.14. The results for the Activity in the data set with Mus musculus [2] and in the data set with Mus musculus [3] were 533.67 µM and 51.85%, respectively.
As for `O=C(CSc1nc2sccc2c(=O)n1-c1ccc(C2CC2)c2ccccc12)NS(=O)(=O)c1ccccc1`, the pIC50 in data set [1] is 4.94.
Same read-out and setting: the figure for `O=C(CSc1nc2sccc2c(=O)n1-c1ccc(C2CC2)c2ccccc12)NS(=O)(=O)c1ccc(F)cc1F` is 5.00; for `O=C(CSc1nc2sccc2c(=O)n1-c1ccc(C2CC2)c2ccccc12)NS(=O)(=O)C1CC1` it is 4.93.
Consider `O=C(O)CSc1nnc(Br)n1-c1ccc(C2CC2)c2ccccc12`, for which the results for the Activity in the data set with Mus musculus [2] and with Mus musculus [3] were 763 µM and 26%, respectively. In data set [12], the inhibition result is “inactive”. Besides, the figures for the survival in data set [5] and in data set [6] were 40% and 20%, respectively.
In turn, `O=C(CSc1nc2sccc2c(=O)n1-c1ccc(C2CC2)c2ccccc12)NS(=O)(=O)c1ccccc1[N+](=O)[O-]` had a pIC50 in data set [1] of 5.01.
